Assay: xn = mol fraction of the nth substance listed
Details: 101.3 kPa

CCCC[n+]1ccn(C)c1.O=S(=O)([N-]S(=O)(=O)C(F)(F)F)C(F)(F)F + CC1COC(=O)O1
x1 = 1
Details | viscosity [mPa·s]
293.15 K | 63.1
298.15 K | 50.5
303.15 K | 41.13
313.15 K | 28.4
318.15 K | 24.03
323.15 K | 20.54
333.15 K | 15.91
338.15 K | 14.02
343.15 K | 12.37
348.15 K | 10.91

CC[n+]1ccn(C)c1.O=S(=O)([N-]S(=O)(=O)C(F)(F)F)C(F)(F)F + CC1COC(=O)O1
Details | viscosity [mPa·s]
288.15 K, x1 = 0.1 | 4.724
288.15 K, x1 = 0.2127 | 7.25
288.15 K, x1 = 0.3007 | 9.74
288.15 K, x1 = 0.4227 | 14.35
288.15 K, x1 = 0.5146 | 18.39
288.15 K, x1 = 0.6015 | 23.02
288.15 K, x1 = 0.658 | 25.85
288.15 K, x1 = 0.7004 | 28.44
288.15 K, x1 = 0.7601 | 31.76
288.15 K, x1 = 0.8098 | 35.48
288.15 K, x1 = 0.8657 | 38.62
288.15 K, x1 = 0.8868 | 40.67
288.15 K, x1 = 0.9533 | 44.93
288.15 K, x1 = 1 | 47.8
293.15 K, x1 = 0.1 | 4.184
293.15 K, x1 = 0.2127 | 6.34
293.15 K, x1 = 0.4227 | 11.98
293.15 K, x1 = 0.5146 | 15.03
293.15 K, x1 = 0.6015 | 19.33
293.15 K, x1 = 0.658 | 21.63
293.15 K, x1 = 0.7004 | 23.75
293.15 K, x1 = 0.7601 | 26.4
293.15 K, x1 = 0.7977 | 28.37
293.15 K, x1 = 0.8098 | 29.37
293.15 K, x1 = 0.8657 | 31.88
293.15 K, x1 = 0.8868 | 33.56
293.15 K, x1 = 0.9533 | 36.88
298.15 K, x1 = 0.1 | 3.737
298.15 K, x1 = 0.3007 | 7.34
298.15 K, x1 = 0.4227 | 10.32
298.15 K, x1 = 0.5146 | 12.87
298.15 K, x1 = 0.6015 | 16.3
298.15 K, x1 = 0.658 | 18.51
298.15 K, x1 = 0.7601 | 22.25
298.15 K, x1 = 0.7977 | 23.88
298.15 K, x1 = 0.8098 | 24.66
298.15 K, x1 = 0.8657 | 26.69
298.15 K, x1 = 0.8868 | 28.06
298.15 K, x1 = 0.9533 | 30.76
298.15 K, x1 = 1 | 32.42
303.15 K, x1 = 0.2127 | 4.96
303.15 K, x1 = 0.3007 | 6.46
303.15 K, x1 = 0.5146 | 11.13
303.15 K, x1 = 0.6015 | 14.61
303.15 K, x1 = 0.658 | 16.21
303.15 K, x1 = 0.7004 | 17.58
303.15 K, x1 = 0.7977 | 20.34
303.15 K, x1 = 0.8098 | 20.96
303.15 K, x1 = 0.8657 | 22.62
303.15 K, x1 = 0.8868 | 23.76
303.15 K, x1 = 0.9533 | 25.94
303.15 K, x1 = 1 | 27.26
308.15 K, x1 = 0.1 | 3.037
308.15 K, x1 = 0.2127 | 4.435
308.15 K, x1 = 0.3007 | 5.73
308.15 K, x1 = 0.5146 | 9.72
308.15 K, x1 = 0.658 | 14.09
308.15 K, x1 = 0.7004 | 15.35
308.15 K, x1 = 0.7977 | 17.84
308.15 K, x1 = 0.8098 | 18.26
308.15 K, x1 = 0.8657 | 19.38
308.15 K, x1 = 0.8868 | 20.35
308.15 K, x1 = 0.9533 | 22.14
313.15 K, x1 = 0.1 | 2.762
313.15 K, x1 = 0.2127 | 3.99
313.15 K, x1 = 0.3007 | 5.13
313.15 K, x1 = 0.4227 | 6.99
313.15 K, x1 = 0.5146 | 8.55
313.15 K, x1 = 0.6015 | 10.89
313.15 K, x1 = 0.658 | 12.21
313.15 K, x1 = 0.7004 | 13.32
313.15 K, x1 = 0.7977 | 15.7
313.15 K, x1 = 0.8657 | 17.2
313.15 K, x1 = 0.8868 | 17.89
313.15 K, x1 = 0.9533 | 19.08
318.15 K, x1 = 0.1 | 2.524
318.15 K, x1 = 0.2127 | 3.613
318.15 K, x1 = 0.4227 | 6.24
318.15 K, x1 = 0.5146 | 7.6
318.15 K, x1 = 0.658 | 10.64
318.15 K, x1 = 0.7601 | 12.82
318.15 K, x1 = 0.7977 | 13.74
318.15 K, x1 = 0.8098 | 14.09
318.15 K, x1 = 0.8657 | 15.18
318.15 K, x1 = 0.8868 | 15.85
318.15 K, x1 = 1 | 17.37
323.15 K, x1 = 0.1 | 2.318
323.15 K, x1 = 0.2127 | 3.292
323.15 K, x1 = 0.3007 | 4.173
323.15 K, x1 = 0.4227 | 5.6
323.15 K, x1 = 0.5146 | 6.79
323.15 K, x1 = 0.658 | 9.31
323.15 K, x1 = 0.7004 | 10.12
323.15 K, x1 = 0.7601 | 11.2
323.15 K, x1 = 0.7977 | 11.96
323.15 K, x1 = 0.8098 | 12.34
323.15 K, x1 = 0.8657 | 13.32
323.15 K, x1 = 0.8868 | 13.92
323.15 K, x1 = 0.9533 | 15.09
323.15 K, x1 = 1 | 15.34
328.15 K, x1 = 0.1 | 2.138
328.15 K, x1 = 0.3007 | 3.8
328.15 K, x1 = 0.6015 | 7.37
328.15 K, x1 = 0.658 | 8.23
328.15 K, x1 = 0.7004 | 8.93
328.15 K, x1 = 0.8098 | 10.81
328.15 K, x1 = 0.8657 | 11.71
328.15 K, x1 = 0.8868 | 12.21
328.15 K, x1 = 0.9533 | 13.31
328.15 K, x1 = 1 | 13.63
333.15 K, x1 = 0.2127 | 2.771
333.15 K, x1 = 0.4227 | 4.607
333.15 K, x1 = 0.5146 | 5.53
333.15 K, x1 = 0.6015 | 6.52
333.15 K, x1 = 0.7601 | 8.7
333.15 K, x1 = 0.7977 | 9.28
333.15 K, x1 = 0.8098 | 9.55
333.15 K, x1 = 0.8657 | 10.33
333.15 K, x1 = 0.8868 | 10.75
333.15 K, x1 = 0.9533 | 11.76
333.15 K, x1 = 1 | 12.17
338.15 K, x1 = 0.2127 | 2.558
338.15 K, x1 = 0.3007 | 3.195
338.15 K, x1 = 0.4227 | 4.205
338.15 K, x1 = 0.5146 | 5.03
338.15 K, x1 = 0.6015 | 5.88
338.15 K, x1 = 0.658 | 6.52
338.15 K, x1 = 0.7004 | 7.07
338.15 K, x1 = 0.7601 | 7.75
338.15 K, x1 = 0.7977 | 8.26
338.15 K, x1 = 0.8098 | 8.49
338.15 K, x1 = 0.8657 | 9.18
338.15 K, x1 = 0.8868 | 9.55
338.15 K, x1 = 0.9533 | 10.42
338.15 K, x1 = 1 | 10.88
343.15 K, x1 = 0.1 | 1.712
343.15 K, x1 = 0.2127 | 2.37
343.15 K, x1 = 0.3007 | 2.947
343.15 K, x1 = 0.4227 | 3.852
343.15 K, x1 = 0.6015 | 5.33
343.15 K, x1 = 0.658 | 5.88
343.15 K, x1 = 0.7004 | 6.33
343.15 K, x1 = 0.8657 | 8.2
343.15 K, x1 = 0.8868 | 8.52
343.15 K, x1 = 0.9533 | 9.3
343.15 K, x1 = 1 | 9.76
348.15 K, x1 = 0.3007 | 2.729
348.15 K, x1 = 0.4227 | 3.549
348.15 K, x1 = 0.5146 | 4.215
348.15 K, x1 = 0.6015 | 4.9
348.15 K, x1 = 0.7004 | 5.77
348.15 K, x1 = 0.7601 | 6.34
348.15 K, x1 = 0.7977 | 6.71
348.15 K, x1 = 0.8098 | 6.83
348.15 K, x1 = 0.8657 | 7.35
348.15 K, x1 = 0.8868 | 7.64
348.15 K, x1 = 0.9533 | 8.33
348.15 K, x1 = 1 | 8.78
